Measured values: PubChem BioAssay (NCI)
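Results reflect a 48-hour exposure of cells in 96-well plates to compound at five concentrations. TGI: total growth inhibition.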

Experiments:
Experiment in all cases: growth of human tumour cells (NCI), 48 h
[1] = test system: SNB-78 CNS
[2] = test system: RXF 393 renal
[3] = test system: HOP-18 NSCLC
[4] = test system: NCI-H522 lung
[5] = test system: K-562 leukemia
[6] = test system: SW-620 colon
[7] = test system: SK-MEL-5 melanoma
[8] = test system: LOX IMVI melanoma
[9] = test system: HT29 colon
[10] = test system: TK-10 renal
[11] = test system: NCI-H460 lung
[12] = test system: KM12 colon
[13] = test system: UACC-257 melanoma
[14] = test system: A498 renal
[15] = test system: ACHN renal
[16] = test system: SK-MEL-2 melanoma
[17] = test system: SF-295 CNS
[18] = test system: U251 CNS
[19] = test system: SNB-19 CNS
[20] = test system: 786-0 renal
[21] = test system: CCRF-CEM leukemia
[22] = test system: XF 498 CNS
[23] = test system: EKVX NSCLC
[24] = test system: KM20L2 colon
[25] = test system: DMS 273 small cell lung
[26] = test system: HCC-2998 colon
[27] = test system: OVCAR-8 ovarian
[28] = test system: LXFL 529 NSCLC
[29] = test system: SK-OV-3 ovarian
[30] = test system: M19-MEL melanoma
[31] = test system: HCT-116 colon
[32] = test system: HOP-62 NSCLC
[33] = test system: OVCAR-3 ovarian
[34] = test system: HL-60(TB) leukemia
[35] = test system: IGROV1 ovarian
[36] = test system: NCI-H23 lung
[37] = test system: RPMI-8226 leukemia
[38] = test system: MALME-3M melanoma
[39] = test system: OVCAR-5 ovarian
[40] = test system: DMS 114 small cell lung
[41] = test system: UO-31 renal
[42] = test system: COLO 205 colon
[43] = test system: MOLT-4 leukemia
[44] = test system: SF-268 CNS
[45] = test system: HOP-92 NSCLC
[46] = test system: RXF-631 renal
[47] = test system: SNB-75 CNS
[48] = test system: SF-539 CNS
[49] = test system: A549 NSCLC
[50] = test system: SK-MEL-28 melanoma
[51] = test system: DLD-1 colon
[52] = test system: NCI-H226 lung
[53] = test system: OVCAR-4 ovarian
[54] = test system: M14 melanoma
[55] = test system: HCT-15 colon
[56] = test system: SR leukemia
[57] = test system: UACC-62 melanoma
[58] = test system: SN12C renal
[59] = test system: CAKI-1 renal

[O-]/[N+](=C\c1ccccc1)[C@H](COCc1ccccc1)c1ccccc1
TGI [1]: > 100 µM | TGI [2]: > 100 µM | TGI [3]: 90.4 µM | TGI [4]: > 100 µM | TGI [5]: > 100 µM | TGI [6]: > 100 µM | TGI [7]: > 100 µM | TGI [8]: > 100 µM | TGI [9]: > 100 µM | TGI [10]: > 100 µM | TGI [11]: > 100 µM | TGI [12]: > 100 µM | TGI [13]: > 100 µM | TGI [14]: > 100 µM | TGI [15]: > 100 µM | TGI [16]: > 100 µM | TGI [17]: > 100 µM | TGI [18]: > 100 µM | TGI [19]: > 100 µM | TGI [20]: > 100 µM | TGI [21]: > 100 µM | TGI [22]: > 100 µM | TGI [23]: > 100 µM | TGI [24]: > 100 µM | TGI [25]: > 100 µM | TGI [26]: > 100 µM | TGI [27]: > 100 µM | TGI [28]: > 100 µM | TGI [29]: > 100 µM | TGI [30]: > 100 µM | TGI [31]: > 100 µM | TGI [32]: > 100 µM | TGI [33]: > 100 µM | TGI [34]: 62.1 µM | TGI [35]: > 100 µM | TGI [36]: > 100 µM | TGI [37]: > 100 µM | TGI [38]: > 100 µM | TGI [39]: > 100 µM | TGI [40]: > 100 µM | TGI [41]: > 100 µM | TGI [42]: > 100 µM | TGI [43]: > 100 µM | TGI [44]: > 100 µM | TGI [45]: 92.7 µM | TGI [46]: > 100 µM | TGI [47]: > 100 µM | TGI [48]: > 100 µM | TGI [49]: > 100 µM | TGI [50]: > 100 µM | TGI [51]: > 100 µM

O=C(Nc1cccc2ccccc12)Oc1ccccc1C1CCCCC1
TGI [1]: 57.9 µM | TGI [2]: 29.2 µM | TGI [3]: 33.2 µM | TGI [5]: 60.4 µM | TGI [6]: 40 µM | TGI [7]: 28.8 µM | TGI [8]: 31.1 µM | TGI [9]: 34.1 µM | TGI [10]: 72.3 µM | TGI [11]: 33 µM | TGI [12]: 41.7 µM | TGI [13]: 29.8 µM | TGI [14]: 31.5 µM | TGI [16]: 40.4 µM | TGI [17]: 31.3 µM | TGI [18]: 26.7 µM | TGI [19]: > 100 µM | TGI [21]: 53.7 µM | TGI [52]: 32.7 µM | TGI [23]: 65.9 µM | TGI [24]: 47.5 µM | TGI [25]: 38.1 µM | TGI [26]: 34.3 µM | TGI [27]: 32.5 µM | TGI [28]: 38.9 µM | TGI [29]: 67.7 µM | TGI [53]: 32.7 µM | TGI [30]: 43.4 µM | TGI [54]: 32.4 µM | TGI [31]: 32.2 µM | TGI [32]: 33.1 µM | TGI [33]: 39.5 µM | TGI [34]: 64.2 µM | TGI [35]: 51.2 µM | TGI [36]: 33.7 µM | TGI [37]: 81.9 µM | TGI [38]: 35.1 µM | TGI [39]: 32.1 µM | TGI [40]: 41.9 µM | TGI [55]: 33.9 µM | TGI [41]: 34.6 µM | TGI [43]: 55.3 µM | TGI [44]: 98.9 µM | TGI [45]: 30.7 µM | TGI [46]: 36.7 µM | TGI [47]: 29.8 µM | TGI [48]: 32 µM | TGI [56]: 57 µM | TGI [57]: 30.5 µM | TGI [49]: 44.1 µM | TGI [58]: 30.1 µM | TGI [50]: 38.1 µM | TGI [51]: 44.8 µM

CN(C)CC(/C(Cc1ccccc1)=N\NC(=O)C[n+]1ccccc1)c1ccccc1 (centres undefined)
TGI [1]: > 100 µM | TGI [2]: > 100 µM | TGI [3]: > 100 µM | TGI [59]: > 100 µM | TGI [4]: > 100 µM | TGI [5]: > 100 µM | TGI [7]: > 100 µM | TGI [9]: > 100 µM | TGI [10]: > 100 µM | TGI [11]: > 100 µM | TGI [12]: > 100 µM | TGI [13]: > 100 µM | TGI [14]: > 100 µM | TGI [15]: > 100 µM | TGI [16]: > 100 µM | TGI [17]: > 100 µM | TGI [18]: > 100 µM | TGI [19]: > 100 µM | TGI [20]: > 100 µM | TGI [21]: > 100 µM | TGI [52]: > 100 µM | TGI [22]: > 100 µM | TGI [23]: > 100 µM | TGI [24]: > 100 µM | TGI [25]: > 100 µM | TGI [26]: > 100 µM | TGI [27]: > 100 µM | TGI [28]: > 100 µM | TGI [29]: > 100 µM | TGI [53]: > 100 µM | TGI [30]: > 100 µM | TGI [54]: > 100 µM | TGI [31]: > 100 µM | TGI [32]: > 100 µM | TGI [33]: > 100 µM | TGI [34]: > 100 µM | TGI [35]: > 100 µM | TGI [36]: > 100 µM | TGI [38]: > 100 µM | TGI [39]: > 100 µM | TGI [40]: > 100 µM | TGI [55]: > 100 µM | TGI [41]: > 100 µM | TGI [42]: > 100 µM | TGI [43]: > 100 µM | TGI [44]: > 100 µM | TGI [45]: > 100 µM | TGI [46]: > 100 µM | TGI [47]: > 100 µM | TGI [48]: > 100 µM | TGI [56]: > 100 µM | TGI [57]: > 100 µM | TGI [49]: > 100 µM | TGI [58]: > 100 µM | TGI [50]: > 100 µM
